Read-outs that look alike come from different tables or passages of the source.
Experiments:
MIA Paca-2 = test: MTT growth inhibition (in vitro cytotoxicity), MIA Paca-2; type: cell-based; details: Homo sapiens, average IC50
Description: (§1) The following Table sets forth the IC50 values of harmaline and quinoline analogs against 23 human cancer cell lines. Growth inhibition effects (in vitro cytotoxicity) on pancreatic, endometrial, breast, lung, ovarian, renal, cervical, lymphoma, and myeloma cancer cells were determined by MTT assays and represented by average IC50 values. In the Table, the results are given in terms of μM, and nd=not determined.

ASPC-1 = test: MTT growth inhibition (in vitro cytotoxicity), ASPC-1; type: cell-based; details: Homo sapiens, ASPC1, average IC50
Description: as §1

BxPC-3 = test: MTT growth inhibition (in vitro cytotoxicity), BxPC-3; type: cell-based; details: Homo sapiens, average IC50
Description: as §1

AN3CA = test: MTT growth inhibition (in vitro cytotoxicity), AN3CA; type: cell-based; details: Homo sapiens, AN3-CA, average IC50
Description: as §1

HEC-1a = test: MTT growth inhibition (in vitro cytotoxicity), HEC-1a; type: cell-based; details: Homo sapiens, average IC50
Description: as §1

MDA-MB-231 = test: MTT growth inhibition (in vitro cytotoxicity), MDA-MB-231; type: cell-based; details: Homo sapiens, average IC50
Description: as §1

MDA-MB-468 = test: MTT growth inhibition (in vitro cytotoxicity), MDA-MB-468; type: cell-based; details: Homo sapiens, average IC50
Description: as §1

HCC70 = test: MTT growth inhibition (in vitro cytotoxicity), HCC70; type: cell-based; details: Homo sapiens, average IC50
Description: as §1

H1975 (EGFR mut) = test: MTT growth inhibition (in vitro cytotoxicity), H1975 (EGFR mut); type: cell-based; details: Homo sapiens, NCI-H1975, average IC50
Description: as §1

H1650(EGFR mut) = test: MTT growth inhibition (in vitro cytotoxicity), H1650(EGFR mut); type: cell-based; details: Homo sapiens, NCI-H1650, average IC50
Description: as §1

A2780 = test: MTT growth inhibition (in vitro cytotoxicity), A2780; type: cell-based; details: Homo sapiens, average IC50
Description: as §1

A2780CP = test: MTT growth inhibition (in vitro cytotoxicity), A2780CP; type: cell-based; details: Homo sapiens, A2780C/P, average IC50
Description: as §1

A498 = test: MTT growth inhibition (in vitro cytotoxicity), A498; type: cell-based; details: Homo sapiens, average IC50
Description: as §1

SiHA = test: MTT growth inhibition (in vitro cytotoxicity), SiHA; type: cell-based; details: Homo sapiens, average IC50
Description: as §1

FaDu = test: MTT growth inhibition (in vitro cytotoxicity), FaDu; type: cell-based; details: Homo sapiens, average IC50
Description: as §1

DoHH-2 = test: MTT growth inhibition (in vitro cytotoxicity), DoHH-2; type: cell-based; details: Homo sapiens, average IC50
Description: as §1

OCI-LY3 = test: MTT growth inhibition (in vitro cytotoxicity), OCI-LY3; type: cell-based; details: Homo sapiens, average IC50
Description: as §1

JIM1 = test: MTT growth inhibition (in vitro cytotoxicity), JIM1; type: cell-based; details: Homo sapiens, average IC50
Description: as §1

KMM-1 = test: MTT growth inhibition (in vitro cytotoxicity), KMM-1; type: cell-based; details: Homo sapiens, average IC50
Description: as §1

KMS-34 = test: MTT growth inhibition (in vitro cytotoxicity), KMS-34; type: cell-based; details: Homo sapiens, average IC50
Description: as §1

RPMI-8226 = test: MTT growth inhibition (in vitro cytotoxicity), RPMI-8226; type: cell-based; details: Homo sapiens, average IC50
Description: as §1

L363 = test: MTT growth inhibition (in vitro cytotoxicity), L363; type: cell-based; details: Homo sapiens, L-363, average IC50
Description: as §1

MOLP-8 = test: MTT growth inhibition (in vitro cytotoxicity), MOLP-8; type: cell-based; details: Homo sapiens, average IC50
Description: as §1

human cancer cell lines = test: Cancer cell growth inhibition, summary over cell lines; type: cell-based; details: read-out: cancer cell growth inhibition (IC50)
Description: as §1

Metabolic half-life = type: in vitro ADME; details: read-out: metabolic half-lives

| Compound | IC50 (MIA Paca-2) [µM] | IC50 (ASPC-1) [µM] | IC50 (BxPC-3) [µM] | IC50 (AN3CA) [µM] | IC50 (HEC-1a) [µM] | IC50 (MDA-MB-231) [µM] | IC50 (MDA-MB-468) [µM] | IC50 (HCC70) [µM] | IC50 (H1975 (EGFR mut)) [µM] | IC50 (H1650(EGFR mut)) [µM] | IC50 (A2780) [µM] | IC50 (A2780CP) [µM] | IC50 (A498) [µM] | IC50 (SiHA) [µM] | IC50 (FaDu) [µM] | IC50 (DoHH-2) [µM] | IC50 (OCI-LY3) [µM] | IC50 (JIM1) [µM] | IC50 (KMM-1) [µM] | IC50 (L363) [µM] | further results |
| --- | --- | --- | --- | --- | --- | --- | --- | --- | --- | --- | --- | --- | --- | --- | --- | --- | --- | --- | --- | --- | --- |
| COc1ccc2c3c([nH]c2c1)C(CC(CC1=NCCc2c1[nH]c1cc(OC)ccc21)c1ccc(O)c(OC)c1)=NCC3 [Compound 5, 4-(1,3-bis(7-methoxy-4,9-dihydro-3H-pyrido[3,4-b]indol-1-yl)propan-2-yl)-2-methoxy-phenol] | 2.87 | 6.75 | 2.11 | 2.5 | 5.05 | 2.52 | 2.76 | 2.38 | 6.12 | 2.78 | 5 | 3.76 | 3.56 | 4.88 | 3.87 | 1.83 | 4.54 | 3.17 | 3.48 | 2.69 | IC50 (KMS-34): 4.72 µM; IC50 (RPMI-8226): 3.19 µM; IC50 (MOLP-8): 3.37 µM; IC50 (human cancer cell lines; cell lines not specified): 4 to 7 µM; half-life (Metabolic half-life): 1.28 ± 0.0393 h |
| COc1ccc2c3c([nH]c2c1)C(CC(CC1=NCCc2c1[nH]c1cc(OC)ccc21)c1ccccc1)=NCC3 [Compound 6, 1,1′-(2-phenylpropane-1,3-diyl)bis(7-methoxy-4,9-dihydro-3H-pyrido[3,4-b]indole)] | 1.85 | 2.08 | – | – | – | – | – | – | – | – | 2.95 | – | – | – | 1.58 | 1.98 | – | 2.22 | 1.91 | 1.4 | IC50 (human cancer cell lines; cell lines not specified): 4 to 7 µM |
| COc1ccc2[nH]c3c(c2c1)CCN=C3CCCC1=NCCc2c1[nH]c1ccc(OC)cc21 [Compound 7, 1,3-bis(6-methoxy-4,9-dihydro-3H-pyrido[3,4-b]indol-1-yl)propane] | 4.54 | 7.9 | 3.21 | 3.01 | 7.02 | 3.12 | 2.6 | 5.13 | 5.77 | 4.95 | 2.54 | 4.12 | 5.39 | 12.7 | 2.34 | 2.41 | 8.85 | 6.15 | 5.18 | 2.47 | IC50 (KMS-34): 4.41 µM; IC50 (RPMI-8226): 1.97 µM; IC50 (MOLP-8): 1.88 µM; IC50 (human cancer cell lines; cell lines not specified): 0.6 to 2 µM; half-life (Metabolic half-life): 2.6 ± 0.124 h |
| COc1ccc2[nH]c3c(c2c1)CCN=C3CC(C)(C)CC1=NCCc2c1[nH]c1ccc(OC)cc21 [Compound 8, 1,1′-(2,2-dimethylpropane-1,3-diyl)bis(6-methoxy-4,9-dihydro-3H-pyrido[3,4-b]indole)] | 1.22 | 2.07 | 0.95 | 1.96 | 2.22 | 1.5 | 1.9 | 1.3 | 2.08 | 1.78 | 1.38 | 2.23 | 1.71 | 2.89 | 0.98 | 2.21 | 2.59 | 2.59 | 1.49 | 1.21 | IC50 (KMS-34): 1.7 µM; IC50 (RPMI-8226): 0.81 µM; IC50 (MOLP-8): 0.67 µM; IC50 (human cancer cell lines; cell lines not specified): 0.6 to 2 µM; half-life (Metabolic half-life): 6.88 ± 1.94 h |
| COc1ccc2[nH]c3c(c2c1)CCN=C3CCCCC1=NCCc2c1[nH]c1ccc(OC)cc21 [Compound 9, 1,4-bis(6-methoxy-4,9-dihydro-3H-pyrido[3,4-b]indol-1-yl)butane] | 6.58 | 20.2 | 10.7 | 20.7 | 20.7 | 19.4 | 7.09 | 11.9 | 19.1 | 15.1 | 11.6 | 17.8 | 19.2 | 19.7 | 6.82 | 6.48 | 6.99 | 21.1 | 12.2 | 8.34 | IC50 (KMS-34): 15.1 µM; IC50 (RPMI-8226): 5.54 µM; IC50 (MOLP-8): 3.68 µM |
| COc1ccc2c3c([nH]c2c1)C(CC(CC1NCCc2c1[nH]c1cc(OC)ccc21)c1ccc(O)c(OC)c1)NCC3 (centres unmarked) [Compound 10, 4-(1,3-bis(7-methoxy-2,3,4,9-tetrahydro-1H-pyrido[3,4-b]indol-1-yl)propan-2-yl)-2-methoxyphenol] | 2.53 | 4.62 | – | – | – | – | – | – | – | – | 6.14 | – | – | – | 2.61 | 2.24 | – | 2.27 | 2.53 | 2.17 | – |
| COc1ccc2c3c([nH]c2c1)C(CC(CC1NCCc2c1[nH]c1cc(OC)ccc21)c1ccccc1)NCC3 (centres unmarked) [Compound 11, 1,1′-(2-phenylpropane-1,3-diyl)bis(7-methoxy-2,3,4,9-tetrahydro-1H-pyrido[3,4-b]indole)] | 2.25 | 2.4 | – | – | – | – | – | – | – | – | 3.4 | – | – | – | 2.22 | 2.31 | – | 2.42 | 2.05 | 1.92 | IC50 (human cancer cell lines; cell lines not specified): 2 to 4 µM |
| COc1cc(C(Cc2nccc3ccccc23)Cc2nccc3ccccc23)ccc1O [Compound 13, 4-(1,3-di(isoquinolin-1-yl)propan-2-yl)-2-methoxyphenol] | 19.7 | 49 | 20.1 | 19.5 | 39.8 | 28.2 | 19.6 | 37.2 | 42.2 | 38.1 | 27.2 | 25.1 | 38.5 | 45.2 | 33.6 | 19.5 | 36.7 | 29.2 | 14.8 | 29.2 | IC50 (KMS-34): 11.8 µM; IC50 (RPMI-8226): 18 µM; IC50 (MOLP-8): 9.71 µM |
| COc1cc(C(Cc2ccc3ccccc3n2)Cc2ccc3ccccc3n2)ccc1O [Compound 16, 4-(1,3-di(quinolin-2-yl)propan-2-yl)-2-methoxyphenol] | 24.5 | 94.6 | 19.5 | 19.7 | 67.7 | 31.6 | 31.6 | 35.2 | 58.9 | 51 | 29.7 | 22.3 | 81.3 | 84.3 | 49.2 | 14.8 | 77.5 | 35.4 | 17 | 29.5 | IC50 (KMS-34): 14.8 µM; IC50 (RPMI-8226): 15.2 µM; IC50 (MOLP-8): 16 µM |
| c1ccc(C(Cc2ccc3ccccc3n2)Cc2ccc3ccccc3n2)cc1 [Compound 17, 2,2′-(2-phenylpropane-1,3-diyl)diquinoline] | 13.3 | 28.7 | 7.64 | 9.35 | 25.4 | 14.5 | 25.8 | 17.2 | 30.1 | 24.6 | 13.3 | 9 | 21.9 | 23.5 | 18.6 | 6.9 | 23.8 | 11 | 7.99 | 7.99 | IC50 (KMS-34): 7.85 µM; IC50 (RPMI-8226): 7.92 µM; IC50 (MOLP-8): 6.56 µM |
| COc1ccc2nc(CC(Cc3ccc4cc(OC)ccc4n3)c3ccccc3)ccc2c1 [Compound 18, 2,2′-(2-phenylpropane-1,3-diyl)bis(6-methoxyquinoline)] | 21.9 | > 100 | 25.1 | 41.8 | 37.6 | > 100 | > 100 | > 100 | > 100 | 48.5 | 25.6 | 26.6 | > 100 | > 100 | 30.3 | 14.3 | 42.2 | 31.7 | 14.8 | 17.4 | IC50 (KMS-34): 17.2 µM; IC50 (RPMI-8226): 17.8 µM; IC50 (MOLP-8): 15 µM |
| COc1ccc2c3c([nH]c2c1)C(C)=NCC3 [harmaline, reference compound] | – | – | – | – | – | – | – | – | – | – | – | – | – | – | – | – | – | – | – | – | IC50 (human cancer cell lines): 25 µM |
| COc1cc(C=O)ccc1O [vanillin, reference compound] | – | – | – | – | – | – | – | – | – | – | – | – | – | – | – | – | – | – | – | – | IC50 (human cancer cell lines; cell lines not specified): 40 µM |

From patent US10947253B2, “Fused polycyclic dimers” (Ankh Life Sciences Limited, priority 2019, dated 2021)
